From US11033496B2, “Nanoparticles for delivery of chemopreventive agents” (OHIO STATE INNOVATION FOUNDATION, priority 2017, dated 2021)
Read-outs that look alike come from different tables or passages of the source.

Test system: human OSCC cells (three oral SCC cell lines)
Type: cell-based
Details: for maximum uptake (fluorescence intensity): 6 h
Procedure: Mean±S.D., n=18, *=p<0.01, ‡=p,0.001, Mann Whitney U 2-tailed test.
The internalization of free-IDA was more rapid than IDA-NP after 1-hour at 1000 nM (free-IDA: 21.08±5.33 vs. IDA-NP: 12.87±4.32). However, the maximum uptake of IDA-NP was greater than free-IDA after 6 hours at 2500 nM (IDA-NP: 43.53±8.42 vs. free-IDA: 27.61±5.66) and 5000 nM (IDA-NP: 64.44±12.71 vs. free-IDA: 31.06±7.24). [Data collected from three oral SCC cell lines, mean±SD, n=18, *P≤0.01 †P≤0.002, ‡P≤0.001; IDA-NP samples compared to free-IDA samples [Mann-Whitney U two-tailed Test].

internalization / cellular uptake (fluorescence intensity) (1 h, 1000 nM): 21.08±5.33
maximum uptake (fluorescence intensity) (2500 nM): 27.61±5.66
maximum uptake (fluorescence intensity) (5000 nM): 31.06±7.24
SMILES: CC(=O)[C@]1(O)Cc2c(O)c3c(c(O)c2[C@@H](O[C@H]2C[C@H](N)[C@H](O)[C@H](C)O2)C1)C(=O)c1ccccc1C3=O [free-IDA, idarubicin]
